This is an account of results in patent US20170008888A1 (KYORIN PHARMACEUTICAL CO., LTD., priority 2014, published 2017).

A word on the IC50: it is the midpoint of a concentration-inhibition curve. For orientation: EC50 means the concentration giving half of the maximal effect.

The subject of one assay is AurB or AurC. Briefly: Probe-based (AX9989) kinase profiling in Jurkat lysate: AurB or AurC. Type of assay: binding. Put shortly:
(§1)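 Percent inhibition was derived from reduced LC/MS fragment intensities of probe-labeled peptides relative to compound-free controls. Before labeling with 5 μM AX9989, Mn2+-supplemented (20 mM) Jurkat lysate was exposed to compound for 15 min at room temperature.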

The target of the next assay is T1, JAK1 (Homo sapiens, UniProt P23458).
T1 construct: screened for activity against several kinases in Jurkat cells; endogenous in cells; host or cells: Jurkat cell lysate
Description: Probe-based (AX9989) kinase profiling in Jurkat lysate: JAK1. Type of assay: binding. Particulars: read-out: JAK1 Inhibition % at indicated screening concentration; for inhibition at 1 µM: screening concentration 1 μM; for inhibition at 10 µM: screening concentration 10 μM. The gist of the method:
as §1

Another assay addresses T2, ACK (Homo sapiens, UniProt Q07912).
T2 construct: screened for activity against several kinases in Jurkat cells; endogenous in cells; host or cells: Jurkat cell lysate
Description: Probe-based (AX9989) kinase profiling in Jurkat lysate: ACK. Type of assay: binding. Particulars: read-out: ACK Inhibition % at indicated screening concentration; for inhibition at 1 µM: screening concentration 1 μM; for inhibition at 10 µM: screening concentration 10 μM. The gist of the method: as §1

Another assay concerns ABL or ARG. Briefly: Probe-based (AX9989) kinase profiling in Jurkat lysate: ABL or ARG. Type of assay: binding. Put shortly: as §1
The target in assay [1] is T3, recombinant human ERK5 catalytic domain (Homo sapiens, UniProt Q13164).
T3 construct: Recombinant human ERK5 catalytic domain radiometric assays; purchased Reaction Biology, Corp (Malvern, Pa.), which ran the assay as a service
Briefly: Recombinant human ERK5 radiometric (HotSpot) assay. Type of assay: biochemical. Particulars: 10 μM ATP, 20 μM myelin basic protein substrate; read-out: rhERK5 IC50. Put shortly:
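Radiometric filter-binding HotSpot assay using [γ-33P]-ATP tracer with 10 μM cold ATP and 20 μM myelin basic protein substrate. Compounds tested in 10-point, ⅓-fold serial dilution from 20 μM; […].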

For another assay, the system named is human PBMCs. Description: Human PBMC TNF-α response to endotoxin (ELISA). Type of assay: cell-based. Particulars: 0.1 μg/ml LPS 16 h, read-out: EC50 for the inhibition of the human PBMC TNF-α response to endotoxin, ave. ± S.D. Put shortly: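 PBMCs at 2e6 cells/ml in RPMI 1640 with 10% charcoal-dextran-treated FBS were pre-treated 1 h at 37 °C with compound (4-point 1:5 dilution from 10 μM). Stimulation with 0.1 μg/ml E. coli 0111:B4 LPS for 16 h; TNF-α measured by ELISA (A450) in 25-fold diluted supernatant.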
On the technique in general: An ELISA detects its analyte on a solid surface through an enzyme-linked reagent.

The target in assay [2] is T4, BRD4 bromodomain domain I [BRD4(1)] (Homo sapiens, UniProt O60885).
T4 construct: BRD4 bromodomain domain I [BRD4(1)]; purchased Cayman Chemicals
Briefly: BRD4 bromodomain domain 1 inhibition assay (TR-FRET). Type of assay: binding. As to conditions: for inhibition at 10 µM: screening concentration 10 μM. Put shortly:
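0.5% DMSO, in triplicate, using Cayman BRD4(1) TR-FRET protocol with slight modification. 670/620 nm ratio normalized to 10 μM JQ1, with DMSO control set as 0% inhibition.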
For orientation: Time-resolved FRET reads energy transfer from a long-lived donor to a nearby acceptor.

T1 sequence (P23458 whole entry): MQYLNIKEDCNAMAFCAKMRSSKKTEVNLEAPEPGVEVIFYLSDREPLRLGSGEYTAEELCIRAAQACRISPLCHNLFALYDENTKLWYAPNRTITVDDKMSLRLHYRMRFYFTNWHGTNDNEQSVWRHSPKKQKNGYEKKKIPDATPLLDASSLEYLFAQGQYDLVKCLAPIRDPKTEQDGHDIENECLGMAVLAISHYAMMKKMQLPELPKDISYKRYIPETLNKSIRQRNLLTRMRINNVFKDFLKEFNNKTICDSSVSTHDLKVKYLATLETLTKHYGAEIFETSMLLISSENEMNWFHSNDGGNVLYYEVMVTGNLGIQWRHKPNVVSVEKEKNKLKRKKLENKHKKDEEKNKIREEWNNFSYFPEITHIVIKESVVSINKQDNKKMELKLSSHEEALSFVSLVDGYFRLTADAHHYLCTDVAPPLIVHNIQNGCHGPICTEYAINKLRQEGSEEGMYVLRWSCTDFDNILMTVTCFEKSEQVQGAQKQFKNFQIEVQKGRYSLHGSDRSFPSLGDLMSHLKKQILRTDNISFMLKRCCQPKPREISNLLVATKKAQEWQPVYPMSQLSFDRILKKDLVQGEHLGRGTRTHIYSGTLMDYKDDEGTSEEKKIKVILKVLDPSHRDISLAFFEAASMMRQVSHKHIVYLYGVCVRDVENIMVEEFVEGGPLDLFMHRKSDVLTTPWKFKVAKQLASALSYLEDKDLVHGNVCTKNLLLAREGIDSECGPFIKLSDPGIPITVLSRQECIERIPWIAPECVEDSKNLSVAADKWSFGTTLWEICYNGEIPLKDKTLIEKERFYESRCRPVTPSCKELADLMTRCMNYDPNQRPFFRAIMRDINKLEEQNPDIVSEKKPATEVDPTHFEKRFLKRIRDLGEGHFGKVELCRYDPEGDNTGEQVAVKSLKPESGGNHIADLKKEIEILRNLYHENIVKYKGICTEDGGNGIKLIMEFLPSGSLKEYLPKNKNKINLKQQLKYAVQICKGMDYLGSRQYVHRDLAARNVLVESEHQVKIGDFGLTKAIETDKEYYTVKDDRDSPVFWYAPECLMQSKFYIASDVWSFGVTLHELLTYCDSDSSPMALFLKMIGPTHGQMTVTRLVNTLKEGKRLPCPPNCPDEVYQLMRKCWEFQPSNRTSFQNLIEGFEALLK
T2 sequence (Q07912 whole entry): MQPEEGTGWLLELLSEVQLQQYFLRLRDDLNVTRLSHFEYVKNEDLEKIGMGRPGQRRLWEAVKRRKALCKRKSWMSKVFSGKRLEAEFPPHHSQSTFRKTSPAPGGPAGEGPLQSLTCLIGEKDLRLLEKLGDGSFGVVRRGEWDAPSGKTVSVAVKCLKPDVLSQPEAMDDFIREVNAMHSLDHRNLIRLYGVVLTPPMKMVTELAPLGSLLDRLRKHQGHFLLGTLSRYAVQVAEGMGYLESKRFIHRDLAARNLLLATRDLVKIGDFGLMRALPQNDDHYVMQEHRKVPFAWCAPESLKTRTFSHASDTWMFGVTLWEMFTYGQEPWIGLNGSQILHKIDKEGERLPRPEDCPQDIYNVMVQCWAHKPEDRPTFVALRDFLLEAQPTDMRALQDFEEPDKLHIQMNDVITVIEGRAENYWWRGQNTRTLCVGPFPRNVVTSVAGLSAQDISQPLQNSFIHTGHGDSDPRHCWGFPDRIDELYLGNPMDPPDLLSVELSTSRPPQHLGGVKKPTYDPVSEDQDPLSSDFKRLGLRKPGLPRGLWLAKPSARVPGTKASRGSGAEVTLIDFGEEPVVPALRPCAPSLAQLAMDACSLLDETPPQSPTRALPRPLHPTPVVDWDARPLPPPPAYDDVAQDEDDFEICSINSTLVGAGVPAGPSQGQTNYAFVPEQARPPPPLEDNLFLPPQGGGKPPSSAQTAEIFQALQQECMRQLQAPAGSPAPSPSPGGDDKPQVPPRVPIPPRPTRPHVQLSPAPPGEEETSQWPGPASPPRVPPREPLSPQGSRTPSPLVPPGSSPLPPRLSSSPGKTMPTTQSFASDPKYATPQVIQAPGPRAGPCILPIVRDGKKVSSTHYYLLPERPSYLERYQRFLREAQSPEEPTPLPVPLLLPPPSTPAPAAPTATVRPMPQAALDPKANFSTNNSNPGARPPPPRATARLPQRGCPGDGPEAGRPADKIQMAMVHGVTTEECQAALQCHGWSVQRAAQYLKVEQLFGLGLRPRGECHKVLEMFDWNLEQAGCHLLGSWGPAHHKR
T3 sequence (Q13164 55-347 limits assumed): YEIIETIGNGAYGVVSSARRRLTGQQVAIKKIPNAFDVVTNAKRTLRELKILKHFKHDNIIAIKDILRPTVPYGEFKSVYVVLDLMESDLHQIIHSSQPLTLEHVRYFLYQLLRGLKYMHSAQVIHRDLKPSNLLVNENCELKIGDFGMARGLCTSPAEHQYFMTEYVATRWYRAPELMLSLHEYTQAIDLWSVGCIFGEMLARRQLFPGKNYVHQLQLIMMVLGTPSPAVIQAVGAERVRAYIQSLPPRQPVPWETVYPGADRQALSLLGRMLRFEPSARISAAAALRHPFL

Consider `CC(C)Oc1cc(C(=O)N2CCN(C3CCN(C)CC3)CC2)ccc1Nc1cc2c(cn1)N(C)C(=O)c1ccccc1N2C` [Compound T49], for which the “AurB or AurC Inhibition % at indicated screening concentration” value (from here on “AurB or AurC Inhibition %”) in the assay on AurB or AurC (screening concentration 1 μM) is “E (E is ≦35%)”. For the same molecule, the inhibition at 1 µM at JAK1 and at ACK was ≤ 35% in each case. Moreover, in the assay on ABL or ARG (screening concentration 1 μM), the “ABL or ARG Inhibition % at indicated screening concentration” value (from here on “ABL or ARG Inhibition %”) is recorded as “E (E is ≦35%)”. In addition, the IC50 in assay [1] fell in the range of 50 to 200 nM. Besides, the EC50 in the assay on human PBMCs came to 300 ± 120 nM. The inhibition at 10 µM in assay [2] is > 85%.
As to `CC(C)Oc1cc(C(=O)N2CC[C@@H](NCCF)C2)ccc1Nc1cc2c(cn1)N(C)C(=O)c1ccccc1N2C` [Compound T50], the “AurB or AurC Inhibition %” value with AurB or AurC (screening concentration 1 μM) is “E (E is ≦35%)”. The inhibition at 1 µM on JAK1 and on ACK was ≤ 35% throughout. Also, in the assay with ABL or ARG (screening concentration 1 μM), the “ABL or ARG Inhibition %” value is “E (E is ≦35%)”. The IC50 in assay [1] lay in the range of 50 to 200 nM. The EC50 with human PBMCs amounted to 630 nM. In addition, the inhibition at 10 µM in assay [2] is > 85%.
Turning to `CCOc1cc(C(=O)N2CCN(c3cccnc3)CC2)ccc1Nc1cc2c(cn1)N(C)C(=O)c1occc1N2C` [Compound T56], the “AurB or AurC Inhibition %” value in the assay on AurB or AurC (screening concentration 1 μM) is listed as “E (E is ≦35%)”. Besides, the inhibition at 1 µM at JAK1 and at ACK was ≤ 35% each time. The “ABL or ARG Inhibition %” value with ABL or ARG (screening concentration 1 μM) is “E (E is ≦35%)”. The IC50 in assay [1] was < 20 nM. In the assay on human PBMCs, the 50% effective concentration (EC50) worked out at 300 nM. Also, the inhibition at 10 µM in assay [2] lay within 70 to 85%.
With `CCOc1cc(C(=O)N[C@H]2CC[C@H](O)CC2)ccc1Nc1cc2c(cn1)N(C)C(=O)c1ccccc1N2C` [Compound T62], the “AurB or AurC Inhibition %” value in the assay on AurB or AurC (screening concentration 1 μM) is recorded as “E (E is ≦35%)”. The inhibition at 1 µM on JAK1 and at ACK was ≤ 35% each time. Also, the “ABL or ARG Inhibition %” value in the assay with ABL or ARG (screening concentration 1 μM) is recorded as “E (E is ≦35%)”. Further, the IC50 in assay [1] was > 200 nM. Also, the EC50 in the assay with human PBMCs stood at 490 ± 100 nM. For the same molecule, the inhibition at 10 µM in assay [2] lay within 70 to 85%.
With `CN1C(=O)c2c(F)cccc2Oc2cc(N[C@H]3CC[C@H](O)CC3)ncc21` [Compound T92], the “AurB or AurC Inhibition %” value in the assay on AurB or AurC (screening concentration 10 μM) was “D (D is >35% to ≦50%)”. The inhibition at 10 µM on JAK1 and at ACK was ≤ 35% each time. Also, the “ABL or ARG Inhibition %” value with ABL or ARG (screening concentration 10 μM) is “E (E is ≦35%)”. The results for the IC50 in assay [1] and in assay [2] were 50 to 200 nM and < 2000 nM, respectively. The EC50 in the assay with human PBMCs turned out to be 440 ± 290 nM.
`COc1cccc2c1Oc1cc(N[C@H]3CC[C@H](O)CC3)ncc1N(C)C2=O` [Compound T95]: the “AurB or AurC Inhibition %” value in the assay on AurB or AurC (screening concentration 10 μM) is given as “E (E is ≦35%)”. For the same molecule, the inhibition at 10 µM on JAK1 and on ACK was ≤ 35% each time. Besides, in the assay with ABL or ARG (screening concentration 10 μM), the “ABL or ARG Inhibition %” value was “E (E is ≦35%)”. Also, the results for the IC50 in assay [1] and in assay [2] were > 200 nM and 2000 to 5000 nM, respectively. Also, the concentration giving a half-maximal response (EC50) with human PBMCs was found to be 1380 ± 1710 nM.
As for `CN1C(=O)c2c(F)ccc(F)c2Oc2cc(N[C@H]3CC[C@H](O)CC3)ncc21` [Compound T97], the “AurB or AurC Inhibition %” value with AurB or AurC (screening concentration 10 μM) is reported as “E (E is ≦35%)”. The inhibition at 10 µM on JAK1 and at ACK was ≤ 35% throughout. For the same molecule, in the assay with ABL or ARG (screening concentration 10 μM), the “ABL or ARG Inhibition %” value is recorded as “E (E is ≦35%)”. The IC50 in assay [1] was > 200 nM; in assay [2], 2000 to 5000 nM. Further, the EC50 with human PBMCs came to 430 ± 450 nM.
As for `CCOc1cc(C(=O)N2CCN(C3CCN(C)CC3)CC2)ccc1Nc1cc2c(cn1)N(C)C(=O)c1ccccc1O2` [Compound T98], the “AurB or AurC Inhibition %” value in the assay on AurB or AurC (screening concentration 10 μM) is on record as “E (E is ≦35%)”. Also, the inhibition at 10 µM at JAK1 and on ACK was ≤ 35% in each case. Besides, the “ABL or ARG Inhibition %” value in the assay with ABL or ARG (screening concentration 10 μM) was “E (E is ≦35%)”. Besides, the IC50 was in the range of 20 to 50 nM in assay [1] and 2000 to 5000 nM in assay [2]. In addition, the EC50 in the assay on human PBMCs is 810 ± 920 nM.
As to `CCOc1cc(C(=O)N2CCN(C3CCN(C)CC3)CC2)ccc1Nc1cc2c(cn1)N(C)C(=O)c1c(F)cccc1O2` [Compound T102], the “AurB or AurC Inhibition %” value with AurB or AurC (screening concentration 10 μM) is on record as “E (E is ≦35%)”. Besides, the inhibition at 10 µM on JAK1 and at ACK was ≤ 35% throughout. Moreover, the “ABL or ARG Inhibition %” value with ABL or ARG (screening concentration 10 μM) is “E (E is ≦35%)”. Besides, the IC50 in assay [1] is 20 to 50 nM; in assay [2], < 2000 nM. For the same molecule, the EC50 in the assay with human PBMCs was found to be 290 ± 280 nM.
For `C[C@@H]1C[C@H](Nc2cc3c(cn2)N(C)C(=O)c2ccccc2N3C)CC[C@H]1O` [Compound T115], the “AurB or AurC Inhibition %” value in the assay with AurB or AurC (screening concentration 10 μM) was “E (E is ≦35%)”. In addition, the inhibition at 10 µM at JAK1 and on ACK was ≤ 35% throughout. For the same molecule, the “ABL or ARG Inhibition %” value in the assay with ABL or ARG (screening concentration 10 μM) is “E (E is ≦35%)”. The IC50 is > 200 nM in assay [1] and 2000 to 5000 nM in assay [2]. The EC50 with human PBMCs is 780 ± 690 nM.
